The record followed here is patent US20180186755A1, “LYSYL OXIDASE-LIKE 2 INHIBITORS AND USES THEREOF” (PharmAkea, Inc., priority 2015, published 2018).

In the first experiment the test system is bleomycin-induced lung fibrosis in C57Bl/6 male mice. The experiment can be described thus: Mouse oropharyngeal bleomycin model of lung fibrosis. Type of experiment: in vivo. The following applies: dosed prophylactically at 60 mg/kg p.o. As for the experimental part: Example B-3: Mouse Oropharyngeal Bleomycin Model of Lung Fibrosis
Lung fibrosis is induced in C57Bl/6 male mice by administering bleomycin (0.1-4 U/kg) via oropharyngeal instillation. Mice are either pretreated with vehicle or test compound (1 day to 1 hour) orally, intraperitoneally, intravenously or subcutaneously before bleomycin installation (prophylactic dosing) or 7-14 days post bleomycin instillation (therapeutic dosing). The route and frequency of dosing are based on previously determined pharmacokinetic properties for the LOXL2 inhibitor in mouse. After bleomycin instillation animals are monitored daily for weight loss and clinical signs for 14-28 days prior to sacrifice. […] For histological examination, lung slices are stained with Masson's trichrome or Picro-Sirius red to measure cross-linked collagen as an indicator of fibrosis and an Ashcroft score of lung fibrotic and inflammatory damage determined. In addition, immunohistochemistry of fibrotic proteins such as a-smooth muscle actin can be recorded. […] After the acid hydrolysis, 25-100 μl of the supernatant is dried down, resuspended in 25 μl water and the hydroxyproline content determined by the addition of 0.5 ml Chloramine T solution (140 mg Chloramine T in 6.5 ml ddH20+1 ml n-propanol+2.5 ml 1M sodium acetate) and incubation at room temperature for 20 min. […]
`Cl.NCc1cc(Oc2cccc(C(=O)NCc3ccnc(Cl)c3)c2)ncn1` [Compound 1-55, 3-((6-(Aminomethyl)pyrimidin-4-yl)oxy)-N-((2-chloropyridin-4-yl)methyl)benzamide]: the “efficacy in mouse oropharyngeal bleomycin model of lung fibrosis” value is given as “efficacious”.

Regarding `NCc1cc(Oc2cccc(C(=O)N3CCN(c4ccccc4)CC3)c2)ncn1` [Compound 1-72, (3-((6-(Aminomethyl)pyrimidin-4-yl)oxy)phenyl)(4-phenylpiperazin-1-yl)methanone], the “efficacy in mouse oropharyngeal bleomycin model of lung fibrosis” value is recorded as “efficacious”.

In the next experiment the target is T1, human LOXL2 (Homo sapiens, UniProt Q9Y4K0).
T1 construct: expressed in transfected cells; 10-20x concentrated conditioned media used as the enzyme source
T1 sequence (Q9Y4K0 26-774): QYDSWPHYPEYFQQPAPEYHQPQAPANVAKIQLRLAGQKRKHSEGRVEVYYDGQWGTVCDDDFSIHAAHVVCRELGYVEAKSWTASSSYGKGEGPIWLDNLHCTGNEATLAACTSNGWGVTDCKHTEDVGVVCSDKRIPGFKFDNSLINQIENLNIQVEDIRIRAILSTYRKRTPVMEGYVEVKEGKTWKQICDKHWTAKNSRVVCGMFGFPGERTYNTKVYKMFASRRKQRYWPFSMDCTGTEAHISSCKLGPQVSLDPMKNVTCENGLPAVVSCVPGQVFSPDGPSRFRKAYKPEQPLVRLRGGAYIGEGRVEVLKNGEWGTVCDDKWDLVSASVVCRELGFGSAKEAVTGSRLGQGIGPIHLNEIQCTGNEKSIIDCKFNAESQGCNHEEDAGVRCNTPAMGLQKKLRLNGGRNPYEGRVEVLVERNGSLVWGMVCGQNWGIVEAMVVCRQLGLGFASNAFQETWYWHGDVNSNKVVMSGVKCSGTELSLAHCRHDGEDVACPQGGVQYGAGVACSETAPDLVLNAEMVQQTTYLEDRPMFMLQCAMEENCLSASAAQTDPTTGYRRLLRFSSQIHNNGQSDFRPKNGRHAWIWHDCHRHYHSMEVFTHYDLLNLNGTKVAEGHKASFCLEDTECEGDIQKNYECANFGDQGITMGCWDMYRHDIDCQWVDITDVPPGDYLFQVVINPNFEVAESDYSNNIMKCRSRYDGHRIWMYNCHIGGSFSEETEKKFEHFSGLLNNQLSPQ
The experiment can be described thus: Human LOXL2 amine oxidase activity assay (Amplex Red fluorescence). The class given is biochemical. The following applies: concentrated conditioned media from CHO cells stably expressing human LOXL2; 2 h at 37° C. preincubation; DAP substrate. The method in brief:
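Enzyme source: 10-20× concentrated conditioned media from CHO cells stably expressing human LOXL2, preincubated with compound for 2 h at 37° C in 50 mM borate pH 8. Reaction started with 1,5-diaminopentane plus Amplex Red/HRP; fluorescence (ex 544/em 590) read kinetically for 1 hour, activity from linear slope.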
The IC50 is the concentration at which inhibition is half-maximal. Read a high IC50 as weaker potency. The compound `Cl.NCc1cc(Oc2cccc(C(=O)NCc3ccnc(Cl)c3)c2)ncn1` [Compound 1-55, 3-((6-(Aminomethyl)pyrimidin-4-yl)oxy)-N-((2-chloropyridin-4-yl)methyl)benzamide] showed a half-inhibitory concentration (IC50) below 0.1 µM.

`NCc1cc(Oc2cccc(C(=O)N3CCN(c4ccccc4)CC3)c2)ncn1` [Compound 1-72, (3-((6-(Aminomethyl)pyrimidin-4-yl)oxy)phenyl)(4-phenylpiperazin-1-yl)methanone] had a half-inhibitory concentration (IC50) below 0.1 µM.

Regarding `NCc1cc(OCc2cccc(C(=O)NCc3cc4cc(F)ccc4[nH]3)c2)ncn1` [Compound 1-85, 3-(((6-(Aminomethyl)pyrimidin-4-yl)oxy)methyl)-N-((5-fluoro-1H-indol-2-yl)methyl)benzamide], the IC50 is below 0.1 µM.

Regarding `Cn1c(CNC(=O)c2cccc(COc3cc(CN)ncn3)c2)cc2ccccc21` [Compound 1-86, 3-(((6-(Aminomethyl)pyrimidin-4-yl)oxy)methyl)-N-((1-methyl-1H-indol-2-yl)methyl)benzamide], the IC50 is below 0.1 µM.

On to `NCc1cc(OCc2cccc(C(=O)NCc3cc4cccnc4[nH]3)c2)ncn1` [Compound 1-87, N-((1H-pyrrolo[2,3-b]pyridin-2-yl)methyl)-3-(((6-(aminomethyl)pyrimidin-4-yl)oxy)methyl)benzamide], for which the IC50 is below 0.1 µM.

In the case of `NCc1cc(OCc2cccc(C(=O)N3CCc4cccnc4C3)c2)ncn1` [Compound 1-88, (3-(((6-(Aminomethyl)pyrimidin-4-yl)oxy)methyl)phenyl)(5,6-dihydro-1,7-naphthyridin-7(8H)-yl)methanone], the IC50 was below 0.1 µM.

The compound `Cc1n[nH]c2c1CN(C(=O)c1cccc(COc3cc(CN)ncn3)c1)CC2` [Compound 1-89, (3-(((6-(Aminomethyl)pyrimidin-4-yl)oxy)methyl)phenyl)(3-methyl-6,7-dihydro-1H-pyrazolo[4,3-c]pyridin-5(4H)-yl)methanone] registered a 50% inhibitory concentration (IC50) below 0.1 µM.

On to `NCc1cc(OCc2cccc(C(=O)N3CCc4c([nH]c5ncccc45)C3)c2)ncn1` [Compound 1-90, (3-(((6-(Aminomethyl)pyrimidin-4-yl)oxy)methyl)phenyl)(5H-pyrrolo[2,3-b:5,4-c′]dipyridin-7(6H,8H,9H)-yl)methanone], for which the IC50 was below 0.1 µM.

Regarding `NCc1cc(OCc2cccc(C(=O)N3CCN(c4ccccc4)CC3)c2)ncn1` [Compound 1-91, (3-(((6-(Aminomethyl)pyrimidin-4-yl)oxy)methyl)phenyl)(4-phenylpiperazin-1-yl)methanone], the IC50 is below 0.1 µM.

Turning to `NCc1cc(OCc2cccc(C(=O)N3CCc4cccnc43)c2)ncn1` [Compound 1-92, (3-(((6-(Aminomethyl)pyrimidin-4-yl)oxy)methyl)phenyl)(2,3-dihydro-1H-pyrrolo[2,3-b]pyridin-1-yl)methanone], the IC50 was below 0.1 µM.

As to `NCc1cc(OCc2cccc(C(=O)N3CCc4ccncc43)c2)ncn1` [Compound 1-93, (3-(((6-(Aminomethyl)pyrimidin-4-yl)oxy)methyl)phenyl)(2,3-dihydro-1H-pyrrolo[2,3-c]pyridin-1-yl)methanone], the IC50 is below 0.1 µM.

The compound `NCc1cc(OCc2cccc(C(=O)N3CCC(O)(C(F)(F)F)CC3)c2)ncn1` [Compound 1-94, (3-(((6-(Aminomethyl)pyrimidin-4-yl)oxy)methyl)phenyl)(4-hydroxy-4-(trifluoromethyl)piperidin-1-yl)methanone] came in with a 50% inhibitory concentration (IC50) below 0.1 µM.

`NCc1cc(NCc2cccc(C(=O)Nc3cccc(C(F)(F)F)c3)c2)ncn1` [Compound 1-96, 3-(((6-(Aminomethyl)pyrimidin-4-yl)amino)methyl)-N-(3-(trifluoromethyl)phenyl)benzamide] registered an IC50 below 0.1 µM.

`NCc1cc(NCc2cccc(C(=O)NCc3cc4ccccc4s3)c2)ncn1` [Compound 1-97, 3-(((6-(Aminomethyl)pyrimidin-4-yl)amino)methyl)-N-(benzo[b]thiophen-2-ylmethyl)benzamide] yielded an IC50 below 0.1 µM.

With `NCc1cc(NCc2cccc(C(=O)NCc3sc4ccccc4c3Cl)c2)ncn1` [Compound 1-98, 3-(((6-(Aminomethyl)pyrimidin-4-yl)amino)methyl)-N-((3-chlorobenzo[b]thiophen-2-yl)methyl)benzamide], the half-inhibitory concentration (IC50) was below 0.1 µM.

As for `NCc1cc(-n2ccc3c(CO)cccc32)ncn1` [Compound 1-99, (1-(6-(Aminomethyl)pyrimidin-4-yl)-1H-indol-4-yl)methanol], the concentration for half-maximal inhibition (IC50) was in the range of 0.1 to 1 µM.

On to `NCc1cc(NCc2cccc(C(=O)N3CCN(c4ccccc4)CC3)c2)ncn1` [Compound 1-100, (3-(((6-(Aminomethyl)pyrimidin-4-yl)amino)methyl)phenyl)(4-phenylpiperazin-1-yl)methanone], for which the concentration for half-maximal inhibition (IC50) fell in the range of 0.1 to 1 µM.

On to `NCc1cc(Oc2cccc3c2CCC(=O)N3)ncn1` [Compound 1-101, 5-((6-(Aminomethyl)pyrimidin-4-yl)oxy)-3,4-dihydroquinolin-2(1H)-one], for which the IC50 is below 0.1 µM.

In turn, `NCc1cc(N2CC[C@@H](C(=O)Nc3ccccc3)C2)ncn1` [Compound 1-102, (R)-1-(6-(Aminomethyl)pyrimidin-4-yl)-N-phenylpyrrolidine-3-carboxamide] yielded a 50% inhibitory concentration (IC50) of 0.1 to 1 µM.

`NCc1cc(N2CCC(C(=O)Nc3ccccc3)CC2)ncn1` [Compound 1-103, 1-(6-(Aminomethyl)pyrimidin-4-yl)-N-phenylpiperidine-4-carboxamide] showed a half-maximal inhibitory concentration (IC50) of 0.1 to 1 µM.

Compound `NCc1cc(N2CCN(C(=O)c3ccccc3)CC2)ncn1` [Compound 1-104, (4-(6-(Aminomethyl)pyrimidin-4-yl)piperazin-1-yl)(phenyl)methanone] had a half-inhibitory concentration (IC50) above 1 µM.

`NCc1cc(N2CCN(C(=O)Nc3ccccc3)CC2)ncn1` [Compound 1-105, 4-(6-(Aminomethyl)pyrimidin-4-yl)-N-phenylpiperazine-1-carboxamide] showed an IC50 of 0.1 to 1 µM.

Turning to `NCc1cc(N2CCN(C(=O)Cc3ccccc3)CC2)ncn1` [Compound 1-106, 1-(4-(6-(Aminomethyl)pyrimidin-4-yl)piperazin-1-yl)-2-phenylethanone], the half-maximal inhibitory concentration (IC50) is 0.1 to 1 µM.

Turning to `NCc1cc(N2C(=O)CCc3c(OCc4ccccc4)cccc32)ncn1` [Compound 1-107, 1-(6-(Aminomethyl)pyrimidin-4-yl)-5-(benzyloxy)-3,4-dihydroquinolin-2(1H)-one], the IC50 was below 0.1 µM.
